Data: patent publication US10919852B2, “Immunomodulator compounds” (CHEMOCENTRYX, INC., priority 2017, dated 2021)

Molecular target: human PD-L1 / Human PD-1 (Homo sapiens (Human), UniProt Q9NZQ7)
Assay: Enzyme-Linked Immunosorbent Assay (ELISA), PD-1/PD-L1 binding
Details: plate-coated human PD-L1, biotinylated human PD-1
Method: Biological Example: Enzyme-Linked Immunosorbent Assay—ELISA
96 Well plates were coated with […] of human PD-L1 (obtained from R&D) in PBS overnight at 4° C. The wells were then blocked with 2% BSA in PBS (W/V) with 0.05% TWEEN-20 for 1 hour at 37° C. The plates were washed 3 times with PBS/0.05% TWEEN-20 and the compounds were serial diluted (1:5) in dilution medium and added to the ELISA plates. Human PD-1 and biotin 0.3 μg/mL (ACRO Biosystems) were added and incubated for 1 hour at 37° C. then washed 3 times with PBS/0.05% TWEEN-20. A second block was performed with 2% BSA in PBS (W/V)/0.05% TWEEN-20 for 10 min at 37° C. and was washed 3 times with PBS/0.05% TWEEN-20. Streptavidin-HRP was added for 1 hour at 37° C. then washed 3 times with PBS/0.05% TWEEN-20. TMB substrate was added and reacted for 20 min at 37° C. A stop solution (2 N aqueous H2SO4) was added. The absorbance was read at 450 nm using a micro-plate spectrophotometer.

Chain of human PD-L1 / Human PD-1 (Q9NZQ7 19-239): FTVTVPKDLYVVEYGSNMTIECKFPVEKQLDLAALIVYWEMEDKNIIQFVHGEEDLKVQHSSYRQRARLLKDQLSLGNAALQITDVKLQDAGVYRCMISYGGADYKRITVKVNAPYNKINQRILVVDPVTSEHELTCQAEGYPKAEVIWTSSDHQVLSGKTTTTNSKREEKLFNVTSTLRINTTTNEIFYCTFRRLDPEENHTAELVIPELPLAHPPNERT

Row | Compound | IC50 [nM]
1 | N#Cc1cncc(COc2cc(O[C@H]3CCc4c(-c5cccc(OCCCN6CC7(C6)CC(F)(F)C7)c5Cl)cccc43)c(Cl)cc2CN[C@@H]2CC[C@H]2O)c1 | < 5
2 | N#Cc1cncc(COc2cc(O[C@H]3CCc4c(-c5cccc(OCCCN6CCCCC6)c5Cl)cccc43)c(Cl)cc2CNC[C@H]2CCC(=O)N2)c1 | < 5
3 | CCOc1cc(O[C@H]2CCc3c(-c4cccc(OCCCN5CCC(F)CC5)c4Cl)cccc32)c(Cl)cc1CN[C@@H]1CCOC[C@H]1O | 5 to 500
4 | N#Cc1cncc(COc2cc(O[C@H]3CCc4c(-c5cccc(OCCCN6CCC(F)CC6)c5C(F)(F)F)cccc43)c(Cl)cc2CNCC2CCC(=O)N2)c1 (stereo partly drawn) | 5 to 500
5 | CCOc1cc(O[C@H]2CCc3c(-c4cccc(OCCCN5CCCC5(C)C)c4C)cccc32)c(Cl)cc1CN(C[C@@H]1CCC(=O)N1)C(C)C | 5 to 500
6 | CCCC(CO)(NCc1cc(Cl)c(O[C@H]2CCc3c(-c4cccc(OCCCN5CC(O)C5)c4Cl)cccc32)cc1OCc1cncc(C#N)c1)C(=O)O (stereo partly drawn) | < 5
7 | N#Cc1cncc(COc2cc(O[C@H]3CCc4c(-c5cccc(OCCCN6CC(O)C6)c5Cl)cccc43)c(Cl)cc2CN2CC3(CC(O)C3)C2)c1 | < 5
8 | CCOc1cc(O[C@H]2CCc3c(-c4cccc(OCCCN5CCC5(C)C)c4C)cccc32)c(Cl)cc1CN(C)CCC(=O)OC | 5 to 500
9 | Cc1c(OCCCN2CC(O)C2)cccc1-c1cccc2c1CC[C@@H]2Oc1cc(OCc2cncc(C#N)c2)c(CNCC2CCC(=O)N2)cc1Cl (stereo partly drawn) | < 5
10 | Cc1c(OCCCN2CCC(F)(C#N)CC2)cccc1-c1cccc2c1CC[C@@H]2Oc1cc(OCc2cc(C#N)cc(C#N)c2)c(CN[C@H]2CCC(=O)NC2)cc1Cl | 5 to 500
11 | Cc1c(OCCCN2[C@H](C)CCC[C@@H]2C)cccc1-c1cccc2c1CC[C@@H]2Oc1cc(OCc2cc(C#N)cc(C#N)c2)c(CNC[C@H]2CCC(=O)N2)cc1Cl | 5 to 500
12 | Cc1c(OCCCN2CCC(F)CC2)cccc1-c1cccc2c1CC[C@@H]2Oc1cc(OCc2cc(C#N)cc(C#N)c2)c(CN2CCC3(C2)NC(=O)NC3=O)cc1Cl (stereo partly drawn) | 5 to 500
13 | Cc1c(OCCCN2C(C)(C)CCCC2(C)C)cccc1-c1cccc2c1CC[C@@H]2Oc1cc(OCc2cc(C#N)cc(C#N)c2)c(CN[C@H]2CCC(=O)NC2)cc1Cl | 5 to 500
14 | CCOc1cc(O[C@H]2CCc3c(-c4cccc(OCCCN5CCC5(C)C)c4C)cccc32)c(Cl)cc1CN(C)CCc1nnn[nH]1 | 5 to 500
15 | N#Cc1cncc(COc2cc(O[C@H]3CCc4c(-c5cccc(OCCCN6CCC(F)CC6)c5Cl)cccc43)c(Cl)cc2CN[C@H]2CCC[C@@H]2O)c1 | < 5
16 | N#Cc1cncc(COc2cc(O[C@H]3CCc4c(-c5cccc(OCCCN6CCC(F)CC6)c5Cl)cccc43)c(Cl)cc2CN[C@@H]2CCCC[C@@H]2O)c1 | < 5
17 | CC(C)(O)[C@H](NCc1cc(Cl)c(O[C@H]2CCc3c(-c4cccc(OCCCN5CCC(F)CC5)c4Cl)cccc32)cc1OCc1cncc(C#N)c1)C(=O)O | < 5
18 | Cc1c(OCCCN2CCC(O)CC2)cccc1-c1cccc2c1CC[C@@H]2Oc1cc(OCc2cncc(C#N)c2)c(CN2CCC(O)CC2)cc1Cl | < 5
19 | Cc1c(OCCCN2CCC(F)CC2)cccc1-c1cccc2c1CC[C@@H]2Oc1cc(OCc2cncc(C(N)=O)c2)c(CN(C)CCC(=O)O)cc1Cl | < 5
20 | Cc1c(OCCCN2CCC(F)CC2)cccc1-c1cccc2c1C[C@@H](F)[C@@H]2Oc1cc(OCc2cc(C#N)cc(C#N)c2)c(CN[C@H]2CCC(=O)NC2)cc1Cl | 5 to 500
21 | N#Cc1cncc(COc2cc(O[C@H]3CCc4c(-c5cccc(OCCCN6CCC(F)CC6)c5Cl)cccc43)c(Cl)cc2CN[C@@H]2CCOC[C@@H]2F)c1 | 5 to 500
22 | CCOc1cc(O[C@H]2CCc3c(-c4cccc(OCCCN5CCC5(C)C)c4C)cccc32)c(Cl)cc1CN(C)CCCC(=O)O | < 5
23 | CCOc1cc(O[C@H]2CCc3c(-c4cccc(OCCCN5CCC5(C)C)c4C)cccc32)c(Cl)cc1CN1CCNC(=O)CC1 | 5 to 500
24 | Cc1c(OCCCN2CCC(F)CC2)cccc1-c1cccc2c1CC[C@@H]2Oc1cc(OCc2cc(C#N)cc(C#N)c2)c(CN[C@H]2CCOC[C@H]2O)cc1Cl | < 5
25 | CCOc1cc(O[C@@H]2c3cccc(-c4cccc(OCCCN5CC(F)C5)c4Cl)c3C[C@@H]2F)c(Cl)cc1CN[C@@](C)(CO)C(=O)O | 5 to 500
26 | CCOc1cc(O[C@H]2CCc3c(-c4cccc(OCCCN5CCC5(C)C)c4C)cccc32)c(Cl)cc1CN1CC(C)(C(=O)O)C1 | 5 to 500

Second part, the compound after the results:

Row | IC50 [nM] | Compound
27 | < 5 | N#Cc1cncc(COc2cc(O[C@H]3CCc4c(-c5cccc(OCCCN6CCC(F)CC6)c5Cl)cccc43)c(Cl)cc2CNCC2CNC(=O)C2)c1 (stereo partly drawn)
28 | < 5 | Cc1c(OCCCN2CCC(F)CC2)cccc1-c1cccc2c1CC[C@@H]2Oc1cc(OCc2cncc(C#N)c2)c(CNCC2CCC(=O)N2)cc1Cl (stereo partly drawn)
29 | < 5 | CCOc1cc(O[C@H]2CCc3c(-c4cccc(OCCCN5CC6(CC(O)C6)C5)c4C)cccc32)c(Cl)cc1CN[C@@H](CO)C(=O)O
30 | < 5 | N#Cc1cncc(COc2cc(O[C@H]3CCc4c(-c5cccc(OCCCN6CCC(F)CC6)c5Cl)cccc43)c(Cl)cc2CN[C@@H]2CCC[C@@H]2O)c1
31 | 5 to 500 | CCOc1cc(O[C@H]2CCc3c(-c4cccc(OCCCN5CCC5(C)C)c4C)cccc32)c(Cl)cc1CN(C)CCCCC(=O)OC
32 | 5 to 500 | CC1(F)CCN(CCCOc2cccc(-c3cccc4c3CC[C@@H]4Oc3cc(OCc4cncc(C#N)c4)c(CN4CCC5(C4)NC(=O)NC5=O)cc3Cl)c2Cl)CC1 (stereo partly drawn)
33 | 5 to 500 | N#Cc1cncc(COc2cc(O[C@H]3CCc4c(-c5cccc(OCCCN6CC(F)(F)C6)c5Cl)cccc43)c(Cl)cc2CN[C@@H]2CCCC[C@@H]2O)c1
34 | 5 to 500 | CCOc1cc(O[C@H]2CCc3c(-c4cccc(OCCCN5CCC5(C)C)c4C)cccc32)c(Cl)cc1CNCCCS(=O)(=O)O
35 | 5 to 500 | CCOc1cc(O[C@@H]2c3cccc(-c4cccc(OCCCN5CCC(C)(F)CC5)c4C)c3C[C@@H]2F)c(Cl)cc1CNC[C@@H]1CCC(=O)N1
36 | < 5 | CCOc1cc(O[C@H]2CCc3c(-c4cccc(OCCCN5CCC5(C)C)c4C)cccc32)c(Cl)cc1CNC[C@@H]1CCC(=O)N1
37 | 5 to 500 | CCOc1cc(O[C@H]2CCc3c(-c4cccc(OCCCN5CC[C@@H](O)C5)c4C)cccc32)c(Cl)cc1CN[C@@](C)(CO)C(=O)OC(C)C
38 | < 5 | N#Cc1cncc(COc2cc(O[C@H]3CCc4c(-c5cccc(OCCCN6CC7(C6)CC(F)(F)C7)c5Cl)cccc43)c(Cl)cc2CN[C@@H]2CCC[C@H]2O)c1
39 | 5 to 500 | Cc1c(OCCCN2CCC(F)CC2)cccc1-c1cccc2c1CC[C@@H]2Oc1cc(OCc2cc(C#N)cc(C#N)c2)c(CN[C@H]2CCCCNC2=O)cc1Cl
40 | < 5 | Cc1c(OCCCN2CCC(O)CC2)cccc1-c1cccc2c1CC[C@@H]2Oc1cc(OCc2cc(C#N)cc(C#N)c2)c(CN[C@@H]2CCCC[C@@H]2O)cc1Cl
41 | < 5 | Cc1c(OCCCN2CCC(O)(C(=O)O)CC2)cccc1-c1cccc2c1CC[C@@H]2Oc1cc(OCc2cncc(C#N)c2)c(CN[C@H](C(=O)O)[C@@H](C)O)cc1Cl
42 | 5 to 500 | CCOc1cc(O[C@H]2CCc3c(-c4cccc(OCCCN5CCC5(C)C)c4C)cccc32)c(Cl)cc1CNCCn1nn[nH]c1=O
43 | < 5 | N#Cc1cncc(COc2cc(O[C@H]3CCc4c(-c5cccc(OCCCN6CC(O)C6)c5Cl)cccc43)c(Cl)cc2CNC[C@@H]2CCC(=O)N2)c1
44 | 5 to 500 | COC(=O)[C@@H](NCc1cc(Cl)c(O[C@H]2CCc3c(-c4cccc(OCCCN5CCC(O)CC5)c4C)cccc32)cc1OCc1cncc(C#N)c1)[C@@H](C)O
45 | 5 to 500 | Cc1c(OCCCN2CC3(CC(F)C3)C2)cccc1-c1cccc2c1CC[C@@H]2Oc1cc(OCc2cncc(C#N)c2)c(CNCC2CCC(=O)N2)cc1Cl (stereo partly drawn)
